Reference: US9475842B2, “Hexadepsipeptide analogues as anticancer compounds” (PIRAMAL ENTERPRISES LIMITED, priority 2012, dated 2016)

Legend:
[1] = system: MiaPaca2 (Pancreatic Cancer); assay: Monolayer assay (CCK-8 cytotoxicity); assay type: cell-based; settings: Homo sapiens, MIA PaCa-2, MiaPaca 2, Pancreatic, 24 hrs exposure
Method: The assays were designed as in the reference, BMC Cancer, 2010, 10, 610, 1-11; the disclosure of which is incorporated by reference for the teaching of the assay.
Human tumour cell lines: Panc-1 (Pancreatic Cancer), HCT 116 (Colorectal Cancer), ACHN (Renal Cell Carcinoma), Calu-1 (Lung Carcinoma), MiaPaca2 (Pancreatic Cancer), FADU (Head and Neck Cancer), PC3 (prostate Cancer), G361 (Melanoma), MDA-MB435S (Melanoma), HeLa (Cervical Cancer) were grown in Minimal Essential Media with Eagle's Basal Salts (MEM-EBS) obtained from AMIMED (BioConcept-Switzerland). Tumour cell lines: MDA-MB231 (Breast Cancer), JURKAT (T cell leukaemia), H460 (Small Cell Lung Cancer) were cultured in RPMI 1640 (AMIMED, BioConcept, Switzerland) medium. All tumour cell lines were supplemented with 10% Foetal Bovine Serum (FBS) (GIBCO), 1% Penicillin/Streptomycin (Sigma) and 1% Anti-Anti (GIBCO) and grown in T-175 tissue culture flasks (Nunc). MCF-10A, a non-tumourigenic cell line, was cultured in Mammary Epithelial Basal Medium (MEBM) with all standard additions (Lonza, Catalog. No. CC-3150). All cells were grown in 5% CO2 incubator at 37° C. Cells were passaged at 80-90% confluence. […]
Compound of Formula (1a) [described in example 7] was dissolved in DMSO to give a required stock solution of 20 mM. […] Each concentration was evaluated in triplicate. […]

HeLa cancer cells = assay: Detection of FITC Annexin V apoptosis by flow cytometry; assay type: cell-based, human; settings: for cells positive for annexin V staining (M2): HeLa cells, 12 hrs
Excerpt: The annexin V assay, a classical technique for detecting apoptosis, is the most commonly used method for detecting apoptosis by flow cytometry. One of the earliest features of apoptosis is the translocation of phosphatidylserine from the inner to the outer leaflet of the plasma membrane, thereby exposing phosphatidylserine to the external environment.
Annexin V (cat. no. 556420, BD Biosciences, USA) binds to phosphatidylserine exposed on the cell surface and identifies cells at an earlier stage of apoptosis. • a) HeLa cancer cells [referred to in step 1 of example 16] were seeded at a density of 0.5×10^6 cells/2000 μL well, in a tissue culture grade […] and allowed them to recover for 12 hrs in a humidified 5±0.2% CO2 incubator at 37±0.5° C. • b) After 12 hrs, 5 μL of 200× (200 times higher than required concentration is represented as 200×) compound of Formula (1a) dissolved in DMSO [step 2, example 16] was added to above tissue culture plate seeded with HeLa cancer cells. The final test concentration of the compound of Formula (1a) was 0.0003 μM, 0.003 μM and 0.01 μM. […] The population present in M1 and M2 were determined using FACS analysis.

cyclin D in HeLa cells = assay: Protein expression by high content screening (Cellomics); assay type: cell-based, human; settings: for Fold down regulation with respect to control cells, Cyclin D: HeLa cells, after 3 hours
Method: Protein expressions of cyclin D, nuclear factor-kappa B (p65) [NFkB (p65)], ribosomal protein S6 (pS6), tumor protein 53 (p53), protein c-jun N-terminal kinase (pJNK), cleaved caspase 9, cleaved caspase 3 and cleaved poly(ADP-ribose) polymerase (PARP) was carried out in HeLa cells [referred to in step 1 of example 16] by Cellomics high content imaging. These primary antibodies were purchased from Santacruz Biotechnology, USA. Briefly 1×10^4 cells were seeded in 96 well tissue culture grade black plate with transparent bottom (Nunc, USA), and allowed to adhere for 24 h, and then replaced with fresh media, and cells were treated with 0.01 μM, 0.003 μM and 0.0003 μM concentrations of compound of Formula (1) [referred to in step 2 of example 16] and incubated for 1 h and 3 h respectively. After respective time point, cells were fixed with 3.7% formaldehyde (Sigma St. Louis, Mo.) for 10 minutes at RT, followed by permeabilization with 0.15% Triton X-100 (Sigma St. Louis, Mo.) for 10 minutes. Then the cells were blocked with 5% Bovine Serum Albumin for 2 hours. After blocking step, specific primary antibodies were added for 1 h, and primary antibodies of different protein were localized by secondary antibody labeled with Dylight548 (red) (Thermofisher, USA). Following secondary incubation, the nucleus was stained with Hoechst 3342 (blue) (Sigma, USA). Immunofluorescence was determined by scanning the plates on Cellomics Array Scan® VTI HCS Reader (Thermo-Fisher Scientific Inc., Waltham, Mass.). All the data points were analyzed using the Compartmental Analysis bio-algorithm of Cellomics and quantitative data were expressed as % activation in comparison to the untreated cells. 1000 cells were counted for each replicate well and the results were presented as an average±S.E.

For `CC(C)CC1CCC(O)(C(C)(O)C(=O)NC2C(=O)N3NCCCC3C(=O)N(O)C(C)C(=O)NCC(=O)N3NCCCC3C(=O)N(O)C(C)C(=O)OC2C(C)C)OC1C` (stereo not drawn) [Formula (1a), N-(6,18-dihydroxy-22-isopropyl-7,19-dimethyl-5,8,11,17,20,24-hexaoxotetracosa hydrodipyridazino[6,1-f:6′,1′-o][1,4,7,10,13,16]oxapentaazacyclononadecin-23-yl)-2-hydroxy-2-(2-hydroxy-5-isobutyl-6-methyltetrahydro-2H-pyran-2-yl)propanamide], the IC50 [1] was 0.0253 ± 0.0046 µM, the “induction of apoptosis (in words)” value (HeLa cancer cells; HeLa cancer cells, conclusion) was “induces cell death through apoptosis” and the “cells positive for annexin V staining (M2)” value (shortened to “cells positive”) (HeLa cancer cells; 0.0003 μM) was 33.80%. The “cells positive” value (HeLa cancer cells; 0.003 μM) was 40.27%, the “cells positive” value (HeLa cancer cells; 0.01 μM) was 59.05% and the “Fold down regulation with respect to control cells, Cyclin D” value (“Fold down regulation” below) (cyclin D in HeLa cells; 0.0003 μM) was −0.57 fold. For the same compound, the “Fold down regulation” value (cyclin D in HeLa cells; 0.003 μM) was −0.89 fold, the “Fold down regulation” value (cyclin D in HeLa cells; 0.01 μM) was −3.81 fold and the “effect on cyclin D protein expression (in words)” value (cyclin D in HeLa cells; cancer cells, conclusion) was “significantly downregulates”.
